Results taken from ChEMBL document CHEMBL1201862, “PubChem BioAssay data set” (2004).
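Assay format: 96-well plates, 48-hour exposure. The concentration for 50% growth inhibition is given as GI50.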 The source made the active and inactive calls. Cut-off read from the data, not from the text of the source: active = GI50 up to about 1.1 µM and inactive = higher.

Columns and labels:
Test in all cases: NCI anticancer screen, dose series, 48 h
MCF7 = tested on: MCF7
HCT-116 = tested on: HCT-116
U-251 = tested on: U-251
SN12C = tested on: SN12C
HT-29 = tested on: HT-29
HCC 2998 = tested on: HCC 2998
LOX IMVI = tested on: LOX IMVI
IGROV-1 = tested on: IGROV-1
SW-620 = tested on: SW-620
HOP-62 = tested on: HOP-62
COLO 205 = tested on: COLO 205
UACC-257 = tested on: UACC-257
K562 = tested on: K562
HCT-15 = tested on: HCT-15
DLD-1 = tested on: DLD-1
M19-MEL = tested on: M19-MEL
DMS-273 = tested on: DMS-273
SNB-19 = tested on: SNB-19
SK-MEL-5 = tested on: SK-MEL-5
SK-MEL-2 = tested on: SK-MEL-2
HOP-18 = tested on: HOP-18
UACC-62 = tested on: UACC-62
OVCAR-5 = tested on: OVCAR-5
OVCAR-8 = tested on: OVCAR-8
CAKI-1 = tested on: CAKI-1
Malme-3M = tested on: Malme-3M
OVCAR-3 = tested on: OVCAR-3
SNB-75 = tested on: SNB-75
SF-295 = tested on: SF-295
NCI-H460 = tested on: NCI-H460
DMS-114 = tested on: DMS-114
KM-20L2 = tested on: KM-20L2
SF-268 = tested on: SF-268
XF498 = tested on: XF498
MOLT-4 = tested on: MOLT-4
SK-OV-3 = tested on: SK-OV-3
SK-MEL-28 = tested on: SK-MEL-28
OVCAR-4 = tested on: OVCAR-4
A549 = tested on: A549
SF-539 = tested on: SF-539
NCI/ADR-RES = tested on: NCI/ADR-RES
NCI-H522 = tested on: NCI-H522
RPMI-8226 = tested on: RPMI-8226
HL-60 = tested on: HL-60
HOP-92 = tested on: HOP-92
EKVX = tested on: EKVX
A498 = tested on: A498
RXF 393 = tested on: RXF 393
NCI-H226 = tested on: NCI-H226
CCRF-CEM = tested on: CCRF-CEM
SNB-78 = tested on: SNB-78
NCI-H23 = tested on: NCI-H23
UO-31 = tested on: UO-31
KM12 = tested on: KM12
LXFL 529 = tested on: LXFL 529
SR = tested on: SR
TK-10 = tested on: TK-10
M14 = tested on: M14
786-0 = tested on: 786-0
ACHN = tested on: ACHN

SMILES: O=C1CCCN1CCC/N=c1/cc2n(-c3ccc(Cl)cc3)c3ccccc3nc-2cc1Nc1ccc(Cl)cc1
- GI50 (MCF7): 7.24 µM (inactive)
- GI50 (HCT-116): 7.26 µM (inactive)
- GI50 (U-251): 22.1 µM (inactive)
- GI50 (SN12C): 14.8 µM (inactive)
- GI50 (HT-29): 2.13 µM (inactive)
- GI50 (HCC 2998): 5.18 µM (inactive)
- GI50 (LOX IMVI): 7.71 µM (inactive)
- GI50 (IGROV-1): 2.75 µM (inactive)
- GI50 (SW-620): 14.5 µM (inactive)
- GI50 (HOP-62): 12.9 µM (inactive)
- GI50 (COLO 205): 1.41 µM (inactive)
- GI50 (UACC-257): 11.9 µM (inactive)
- GI50 (K562): 9.23 µM (inactive)
- GI50 (HCT-15): 4.52 µM
- GI50 (DLD-1): 4.81 µM (inactive)
- GI50 (M19-MEL): 2.32 µM (inactive)
- GI50 (DMS-273): 15.6 µM (inactive)
- GI50 (SNB-19): 34.7 µM (inactive)
- GI50 (SK-MEL-5): 13 µM (inactive)
- GI50 (SK-MEL-2): 13.1 µM (inactive)
- GI50 (HOP-18): 24.8 µM (inactive)
- GI50 (UACC-62): 11.5 µM (inactive)
- GI50 (OVCAR-5): 17 µM (inactive)
- GI50 (OVCAR-8): 14.6 µM (inactive)
- GI50 (CAKI-1): 27 µM (inactive)
- GI50 (Malme-3M): 16.5 µM (inactive)
- GI50 (OVCAR-3): 2.09 µM (inactive)
- GI50 (SNB-75): 25.6 µM (inactive)
- GI50 (SF-295): 19.3 µM (inactive)
- GI50 (NCI-H460): 7.06 µM (inactive)
- GI50 (DMS-114): 6.38 µM (inactive)
- GI50 (KM-20L2): 2.42 µM (inactive)
- GI50 (SF-268): 38.5 µM (inactive)
- GI50 (XF498): 19.7 µM (inactive)
- GI50 (MOLT-4): 3.66 µM (inactive)
- GI50 (SK-OV-3): 46.7 µM (inactive)
- GI50 (SK-MEL-28): 23.8 µM (inactive)
- GI50 (OVCAR-4): 5.57 µM (inactive)
- GI50 (A549): 15.7 µM (inactive)
- GI50 (SF-539): 12.7 µM (inactive)
- GI50 (NCI/ADR-RES): 15.6 µM (inactive)
- GI50 (NCI-H522): 9.23 µM (inactive)
- GI50 (RPMI-8226): 5.98 µM (inactive)
- GI50 (HL-60): 3.47 µM (inactive)
- GI50 (HOP-92): 8.17 µM (inactive)
- GI50 (EKVX): 13.1 µM (inactive)
- GI50 (A498): 19.5 µM (inactive)
- GI50 (RXF 393): 1.78 µM (inactive)
- GI50 (NCI-H226): 15.7 µM (inactive)
- GI50 (CCRF-CEM): 12.6 µM (inactive)
- GI50 (SNB-78): 18.9 µM (inactive)
- GI50 (NCI-H23): 8.26 µM (inactive)
- GI50 (UO-31): 6.73 µM (inactive)
- GI50 (KM12): 13.4 µM (inactive)

SMILES: O=C(/C=C/c1ccccc1)NC1C=Nc2ccc([N+](=O)[O-])cc2NC1=O (stereo not given)
- GI50 (HCT-116): 96.6 µM (inactive)
- GI50 (U-251): > 100 µM (inactive)
- GI50 (SN12C): > 100 µM (inactive)
- GI50 (HT-29): 73.1 µM (inactive)
- GI50 (HCC 2998): 34.8 µM (inactive)
- GI50 (LOX IMVI): 22.7 µM (inactive)
- GI50 (IGROV-1): > 100 µM (inactive)
- GI50 (LXFL 529): 34.7 µM (inactive)
- GI50 (SW-620): > 100 µM (inactive)
- GI50 (SR): > 100 µM (inactive)
- GI50 (HOP-62): 84.3 µM (inactive)
- GI50 (COLO 205): 29 µM (inactive)
- GI50 (UACC-257): > 100 µM (inactive)
- GI50 (TK-10): > 100 µM (inactive)
- GI50 (K562): 27 µM (inactive)
- GI50 (HCT-15): 23.2 µM
- GI50 (DLD-1): > 100 µM (inactive)
- GI50 (M19-MEL): 38.4 µM (inactive)
- GI50 (DMS-273): 21.6 µM (inactive)
- GI50 (SNB-19): > 100 µM (inactive)
- GI50 (SK-MEL-5): > 100 µM (inactive)
- GI50 (SK-MEL-2): 25.7 µM (inactive)
- GI50 (UACC-62): 44.1 µM (inactive)
- GI50 (OVCAR-5): 71.9 µM (inactive)
- GI50 (OVCAR-8): > 100 µM (inactive)
- GI50 (CAKI-1): > 100 µM (inactive)
- GI50 (Malme-3M): > 100 µM (inactive)
- GI50 (OVCAR-3): 80.5 µM (inactive)
- GI50 (SNB-75): > 100 µM (inactive)
- GI50 (SF-295): 30.3 µM (inactive)
- GI50 (NCI-H460): > 100 µM (inactive)
- GI50 (DMS-114): 15.8 µM (inactive)
- GI50 (M14): 52.8 µM (inactive)
- GI50 (KM-20L2): 23.3 µM (inactive)
- GI50 (SF-268): > 100 µM (inactive)
- GI50 (XF498): > 100 µM (inactive)
- GI50 (MOLT-4): 53.8 µM (inactive)
- GI50 (SK-OV-3): > 100 µM (inactive)
- GI50 (SK-MEL-28): > 100 µM (inactive)
- GI50 (OVCAR-4): > 100 µM (inactive)
- GI50 (A549): > 100 µM (inactive)
- GI50 (SF-539): > 100 µM (inactive)
- GI50 (NCI-H522): 6.01 µM (inactive)
- GI50 (HL-60): 25.3 µM (inactive)
- GI50 (HOP-92): > 100 µM (inactive)
- GI50 (EKVX): > 100 µM (inactive)
- GI50 (786-0): > 100 µM (inactive)
- GI50 (A498): > 100 µM (inactive)
- GI50 (RXF 393): > 100 µM (inactive)
- GI50 (NCI-H226): > 100 µM (inactive)
- GI50 (CCRF-CEM): 17.4 µM (inactive)
- GI50 (SNB-78): > 100 µM (inactive)
- GI50 (ACHN): 26.2 µM (inactive)
- GI50 (NCI-H23): 76.4 µM (inactive)
- GI50 (UO-31): 48.9 µM (inactive)
- GI50 (KM12): 18.1 µM (inactive)

SMILES: COc1ccc(NC(=O)CC2S/C(=N\c3ccccc3C)NC2=O)c([N+](=O)[O-])c1 (stereo not given)
- GI50 (HCT-116): > 100 µM (inactive)
- GI50 (U-251): > 100 µM (inactive)
- GI50 (SN12C): > 100 µM (inactive)
- GI50 (HT-29): > 100 µM (inactive)
- GI50 (HCC 2998): > 100 µM (inactive)
- GI50 (LOX IMVI): > 100 µM (inactive)
- GI50 (IGROV-1): > 100 µM (inactive)
- GI50 (LXFL 529): > 100 µM (inactive)
- GI50 (SW-620): > 100 µM (inactive)
- GI50 (SR): > 100 µM (inactive)
- GI50 (HOP-62): > 100 µM (inactive)
- GI50 (COLO 205): > 100 µM (inactive)
- GI50 (UACC-257): > 100 µM (inactive)
- GI50 (TK-10): > 100 µM (inactive)
- GI50 (K562): > 100 µM (inactive)
- GI50 (HCT-15): > 100 µM
- GI50 (DLD-1): > 100 µM (inactive)
- GI50 (M19-MEL): > 100 µM (inactive)
- GI50 (DMS-273): > 100 µM (inactive)
- GI50 (SNB-19): > 100 µM (inactive)
- GI50 (SK-MEL-2): > 100 µM (inactive)
- GI50 (UACC-62): > 100 µM (inactive)
- GI50 (OVCAR-5): > 100 µM (inactive)
- GI50 (OVCAR-8): > 100 µM (inactive)
- GI50 (Malme-3M): > 100 µM (inactive)
- GI50 (OVCAR-3): > 100 µM (inactive)
- GI50 (SNB-75): > 100 µM (inactive)
- GI50 (SF-295): > 100 µM (inactive)
- GI50 (NCI-H460): > 100 µM (inactive)
- GI50 (M14): > 100 µM (inactive)
- GI50 (KM-20L2): > 100 µM (inactive)
- GI50 (SF-268): > 100 µM (inactive)
- GI50 (XF498): > 100 µM (inactive)
- GI50 (MOLT-4): > 100 µM (inactive)
- GI50 (SK-OV-3): > 100 µM (inactive)
- GI50 (SK-MEL-28): > 100 µM (inactive)
- GI50 (OVCAR-4): > 100 µM (inactive)
- GI50 (A549): > 100 µM (inactive)
- GI50 (SF-539): > 100 µM (inactive)
- GI50 (NCI-H522): 25.4 µM (inactive)
- GI50 (RPMI-8226): > 100 µM (inactive)
- GI50 (HL-60): > 100 µM (inactive)
- GI50 (HOP-92): > 100 µM (inactive)
- GI50 (786-0): > 100 µM (inactive)
- GI50 (NCI-H226): > 100 µM (inactive)
- GI50 (SNB-78): > 100 µM (inactive)
- GI50 (ACHN): > 100 µM (inactive)
- GI50 (NCI-H23): > 100 µM (inactive)
- GI50 (UO-31): > 100 µM (inactive)
- GI50 (KM12): > 100 µM (inactive)
